In ChEMBL document CHEMBL5050844 (2019):

Assays:
[1] = Induction of activation of human CD56+ CD3- NK cells co-cultured with human K562 cells in 1:1 ratio and assessed as increase in TNF-alpha secretion at 2.5 uM measured by ELISA assay; type: functional, Natural killer cell
[2] = Induction of anti-CD3/CD28 antibodies-stimulated human anergic T cell activation at 10 uM assessed fold increase in IFN-gamma secretion measured by ELISA assay; type: functional, T cell line
[3] = Induction of anti-CD3 antibodies-stimulated human CD8+ T cell activation at 10 uM assessed fold increase in CD69 expression measured by flow cytometry analysis; type: functional, T cell line; note: reference of the scale not given here
[4] = Induction of anti-CD3 antibodies-stimulated human CD8+ T cell activation at 1.11 uM assessed fold increase in CD69 expression measured by flow cytometry analysis; type: functional, T cell line; note: reference of the scale not given here
[5] = Induction of anti-CD3/CD28 antibodies-stimulated human T cell activation at 1 uM assessed fold increase in CD25 expression measured by ELISA assay; type: functional, T cell line
[6] = Induction of activation of human CD56+ CD3- NK cells co-cultured with human K562 cells in 1:1 ratio and assessed as increase in TNF-alpha secretion at 10 uM measured by ELISA assay; type: functional, Natural killer cell
[7] = Induction of anti-CD3/CD28 antibodies-stimulated human CD4+ T cell activation at 10 uM assessed fold increase in CD69 expression measured by flow cytometry analysis; type: functional, T cell line
[8] = Induction of anti-CD3 antibodies-stimulated human T cell activation at 1.11 uM assessed fold increase in IFN-gamma secretion measured by ELISA assay; type: functional, T cell line; note: reference of the scale not given here
[9] = Induction of anti-CD3/CD28 antibodies-stimulated human T cell activation at 1.11 uM assessed fold increase in TNF-alpha secretion measured by ELISA assay; type: functional, T cell line
[10] = Induction of anti-CD3/CD28 antibodies-stimulated human T cell activation at 4 uM assessed fold increase in IL-2 secretion measured by ELISA assay; type: functional, T cell line
[11] = Induction of activation of human CD56+ CD3- NK cells co-cultured with human K562 cells in 1:1 ratio and assessed as increase in IFN-gamma secretion at 10 uM measured by ELISA assay; type: functional, Natural killer cell
[12] = Induction of anti-CD3 antibodies-stimulated human exhausted T cell activation assessed fold increase in IL-2 secretion measured by ELISA assay; type: functional, T cell line; note: reference of the scale not given here
[13] = Induction of anti-CD3 antibodies-stimulated human CD8+ T cell activation at 10 uM assessed fold increase in cell proliferation measured by flow cytometry analysis; type: functional, T cell line; note: reference of the scale not given here
[14] = Induction of anti-CD3/CD28 antibodies-stimulated human T cell activation at 0.3 uM assessed fold increase in IL-2 secretion measured by ELISA assay; type: functional, T cell line
[15] = Induction of anti-CD3 antibodies-stimulated human CD4+ T cell activation at 10 uM assessed fold increase in CD69 expression measured by flow cytometry analysis; type: functional, T cell line; note: reference of the scale not given here
[16] = Induction of anti-CD3/CD28 antibodies-stimulated human CD8+ T cell activation at 1.11 uM assessed fold increase in CD69 expression measured by flow cytometry analysis; type: functional, T cell line
[17] = Induction of anti-CD3 antibodies-stimulated human T cell activation at 8 uM assessed fold increase in CD25 expression measured by ELISA assay; type: functional, T cell line; note: reference of the scale not given here
[18] = Induction of anti-CD3 antibodies-stimulated human CD4+ T cell activation at 1.11 uM assessed fold increase in CD69 expression measured by flow cytometry analysis; type: functional, T cell line; note: reference of the scale not given here
[19] = Induction of allogenic human T cell activation at 10 uM assessed fold increase in cell proliferation; type: functional, T cell line
[20] = Induction of anti-CD3/CD28 antibodies-stimulated human T cell activation at 1.11 uM assessed fold increase in IFN-gamma secretion measured by ELISA assay; type: functional, T cell line
[21] = Induction of anti-CD3/CD28 antibodies-stimulated human CD4+ T cell activation at 10 uM assessed fold increase in cell proliferation measured by flow cytometry analysis; type: functional, T cell line
[22] = Induction of activation of human CD56+ CD3- NK cells co-cultured with human K562 cells in 1:1 ratio and assessed as increase in IFN-gamma secretion at 2.5 uM measured by ELISA assay; type: functional, Natural killer cell
[23] = Induction of anti-CD3 antibodies-stimulated human T cell activation at 10 uM assessed fold increase in GM-CSF secretion measured by ELISA assay; type: functional, T cell line; note: reference of the scale not given here
[24] = Induction of anti-CD3 antibodies-stimulated human T cell activation at 10 uM assessed fold increase in IFN-gamma secretion measured by ELISA assay; type: functional, T cell line; note: reference of the scale not given here
[25] = Induction of anti-CD3/CD28 antibodies-stimulated human T cell activation at 10 uM assessed fold increase in TNF-alpha secretion measured by ELISA assay; type: functional, T cell line
[26] = Induction of anti-CD3/CD28 antibodies-stimulated human T cell activation at 0.3 uM assessed fold increase in CD25 expression measured by ELISA assay; type: functional, T cell line
[27] = Induction of anti-CD3/CD28 antibodies-stimulated human T cell activation at 10 uM assessed fold increase in GM-CSF secretion measured by ELISA assay; type: functional, T cell line
[28] = Induction of anti-CD3/CD28 antibodies-stimulated human CD4+ T cell activation at 1.11 uM assessed fold increase in cell proliferation measured by flow cytometry analysis; type: functional, T cell line
B cell = assay: Induction of anti-IgM-stimulated human CD20+ B cell activation at 10 to 1000 uM assessed as increase in CD69 expression measured as mean fluorescence intensity AUC by flow cytometry analysis; type: functional, cell-based; conditions: dose 10-1000 µM
[29] = Induction of anti-CD3/CD28 antibodies-stimulated human T cell activation at 10 uM assessed fold increase in IFN-gamma secretion measured by ELISA assay; type: functional, T cell line
[30] = Induction of anti-CD3/CD28 antibodies-stimulated human CD4+ T cell activation at 1.11 uM assessed fold increase in CD69 expression measured by flow cytometry analysis; type: functional, T cell line
[31] = Induction of anti-CD3 antibodies-stimulated human exhausted T cell activation assessed fold increase in GM-CSF secretion measured by ELISA assay; type: functional, T cell line; note: reference of the scale not given here
[32] = Induction of anti-CD3 antibodies-stimulated human T cell activation at 1 uM assessed fold increase in CD25 expression measured by ELISA assay; type: functional, T cell line; note: reference of the scale not given here
[33] = Induction of anti-CD3 antibodies-stimulated human T cell activation at 8 uM assessed fold increase in IL-2 secretion measured by ELISA assay; type: functional, T cell line; note: reference of the scale not given here
[34] = Induction of anti-CD3 antibodies-stimulated human CD8+ T cell activation at 1.11 uM assessed fold increase in cell proliferation measured by flow cytometry analysis; type: functional, T cell line; note: reference of the scale not given here
[35] = Induction of anti-CD3/CD28 antibodies-stimulated human anergic T cell activation at 0.37 uM assessed fold increase in IFN-gamma secretion measured by ELISA assay; type: functional, T cell line
[36] = Induction of anti-CD3 antibodies-stimulated human T cell activation at 1.11 uM assessed fold increase in TNF-alpha secretion measured by ELISA assay; type: functional, T cell line; note: reference of the scale not given here
[37] = Induction of anti-CD3 antibodies-stimulated human exhausted CD8+ T cell activation assessed fold increase in CTLA4 expression measured by flow cytometry analysis; type: functional, T cell line; note: reference of the scale not given here

Row | SMILES | fold change (FC) [1] | fold change (FC) [2] | fold change (FC) [3] | fold change (FC) [4] | fold change (FC) [5] | fold change (FC) [6] | fold change (FC) [7] | fold change (FC) [8] | fold change (FC) [9] | fold change (FC) [10] | fold change (FC) [11] | fold change (FC) [12] | fold change (FC) [13] | fold change (FC) [14] | fold change (FC) [15] | fold change (FC) [16] | fold change (FC) [17] | fold change (FC) [18] | fold change (FC) [19] | fold change (FC) [20] | further results
1 | C[C@H](Cc1nncn1C)c1cccc(N2Cc3c(cc(CN4CC[C@H](F)C4)cc3C(F)(F)F)C2=O)c1 | >=5 | >4.01 | 1.401 | 1.401 | 1.31 | 2.01 | >1.601 | 3.01 | 2.01 | >=7.5 | >=5 | >3.01 | >4 | 5 | >1.601 | 1.201 | >=1.001 | >1.601 | >3 | >4 | fold change (FC) [21]: >4; fold change (FC) [22]: >=5; fold change (FC) [23]: >4; fold change (FC) [24]: >4; fold change (FC) [25]: 2.01; fold change (FC) [26]: 1.01; fold change (FC) [27]: >4; fold change (FC) [28]: >4; AUC (B cell): 1.01; fold change (FC) [29]: >4; fold change (FC) [30]: >1.601; fold change (FC) [31]: >1.61; fold change (FC) [32]: >=1.001; fold change (FC) [33]: >=0.201; fold change (FC) [34]: >4; fold change (FC) [35]: >4.01; fold change (FC) [36]: 2.01; fold change (FC) [37]: >1.61
2 | C[C@H](Cc1nncn1C)c1cccc(N2Cc3c(cccc3C(F)(F)F)C2=O)c1.Cl | 1.01 | <=2.5 | <=1.2 | <=1.2 | 1.51 | <=1 | 1.201 | <=2 | <=1.5 | 5 | 2.01 | <=2.5 | <=2 | 1.01 | <=1.2 | <=1.2 | >=1.001 | <=1.2 | <=2 | 3.01 | fold change (FC) [21]: 3.01; fold change (FC) [22]: 1.01; fold change (FC) [23]: <=1.5; fold change (FC) [24]: <=2; fold change (FC) [25]: 1.51; fold change (FC) [26]: 1.31; fold change (FC) [27]: 1.51; fold change (FC) [28]: <=2; AUC (B cell): 1.01; fold change (FC) [29]: >4; fold change (FC) [30]: <=1.2; fold change (FC) [31]: <=1.4; fold change (FC) [32]: 0.601; fold change (FC) [33]: >=0.201; fold change (FC) [34]: <=2; fold change (FC) [35]: <=2.5; fold change (FC) [36]: <=1.5; fold change (FC) [37]: 1.41
